PMC9609767, “Radiosynthesis and Preclinical Evaluation of an ^18F-Labeled Triazolopyridopyrazine-Based Inhibitor for Neuroimaging of the Phosphodiesterase 2A (PDE2A)” (Pharmaceuticals, 2022)
Values joined by “and” are separate entries in the source; they are usually repeats but may differ in a detail not shown here. Identical values can stand only once. Like-named read-outs stand apart in the source and are kept apart here.

How the values were obtained:
[1] = In vivo metabolism in CD-1 mice (radio-HPLC of plasma and brain); conditions: mouse
Method: Two non-anesthetized female CD-1 mice (30 and 33 g, 90 days) were injected intravenously with [^18F]11 (28 MBq = 94 nmol/kg and 25 MBq = 78 nmol/kg). The animals were anesthetized by isoflurane inhalation at 28 min p.i. and blood was collected from the retro-orbital plexus, followed by cervical dislocation at 30 min p.i. Immediately afterwards, the brains were isolated, washed twice with isotonic saline and stored on ice. Plasma was obtained from the whole blood sample by centrifugation (8.000 rpm, 2 min, ambient temperature). All samples were weighed and the radioactivity was measured in a dose calibrator (ISOMED 2010 Dose Calibrator, NUVIA Instruments GmbH, Dresden, Germany). Afterwards, the brains were homogenized in 1 mL demineralized water on ice (Potter S, B. Braun Biotech, Melsungen, Germany).
(§1) Protein precipitation was performed by the addition of ice-cold ACN/H2O (9:1, v/v) in a ratio of 4:1 (v/v) of organic solvent to plasma or brain homogenate, respectively. The samples were vortexed for 3 min, equilibrated on ice for 3 min, and centrifuged for 10 min at 10,000 rpm and the supernatant collected. The precipitates were washed with 100 μL of the solvent mixture and subjected to the same procedure. The combined supernatants were concentrated at 70 °C under argon flow to a final volume of approximately 100 μL and analysed by analytical radio-HPLC with a gradient system (see radiochemistry general section). The peak corresponding to the radiotracer in the radio-chromatogram was identified by co-injecting the sample with the reference compound 11. To determine the percentage of activity in the supernatants compared to total activity, aliquots of each step as well as the precipitates were quantified by an automated gamma counter (1480 WIZARD, Perkin Elmer, Turku, Finland). For plasma and brain samples recoveries of ≥91% of total activity were obtained.

[2] = In vivo metabolism in SPRD rats (radio-HPLC of plasma and brain); conditions: rat, 30 min p.i., i.v.
Method: Metabolism in rats has been investigated in the animals applied in PET studies (protocol reported below). In brief, blood was taken from two anesthetized female SPRD rats 30 min after intravenous injection of [^18F]11 followed by decapitation and isolation of the brains. The blood samples and the brains were processed as described above.
as §1, with “For plasma and brain samples recoveries of ≥91% of total activity were obtained.” left out

rat PDE2A = target: T1, rat PDE2A (Rattus norvegicus, UniProt Q01062); experiment: In vitro autoradiography with rat brain cryosections; assay type: binding; conditions: for Kd: read-out: apparent KD
T1 construct: Frozen sagittal 12 µm brain sections obtained from female SPRD and male Wistar-Han rats; from tissue; host or cells: rat brain cryosections (female SPRD and male Wistar-Han rats)
T1 sequence (Q01062 1-928): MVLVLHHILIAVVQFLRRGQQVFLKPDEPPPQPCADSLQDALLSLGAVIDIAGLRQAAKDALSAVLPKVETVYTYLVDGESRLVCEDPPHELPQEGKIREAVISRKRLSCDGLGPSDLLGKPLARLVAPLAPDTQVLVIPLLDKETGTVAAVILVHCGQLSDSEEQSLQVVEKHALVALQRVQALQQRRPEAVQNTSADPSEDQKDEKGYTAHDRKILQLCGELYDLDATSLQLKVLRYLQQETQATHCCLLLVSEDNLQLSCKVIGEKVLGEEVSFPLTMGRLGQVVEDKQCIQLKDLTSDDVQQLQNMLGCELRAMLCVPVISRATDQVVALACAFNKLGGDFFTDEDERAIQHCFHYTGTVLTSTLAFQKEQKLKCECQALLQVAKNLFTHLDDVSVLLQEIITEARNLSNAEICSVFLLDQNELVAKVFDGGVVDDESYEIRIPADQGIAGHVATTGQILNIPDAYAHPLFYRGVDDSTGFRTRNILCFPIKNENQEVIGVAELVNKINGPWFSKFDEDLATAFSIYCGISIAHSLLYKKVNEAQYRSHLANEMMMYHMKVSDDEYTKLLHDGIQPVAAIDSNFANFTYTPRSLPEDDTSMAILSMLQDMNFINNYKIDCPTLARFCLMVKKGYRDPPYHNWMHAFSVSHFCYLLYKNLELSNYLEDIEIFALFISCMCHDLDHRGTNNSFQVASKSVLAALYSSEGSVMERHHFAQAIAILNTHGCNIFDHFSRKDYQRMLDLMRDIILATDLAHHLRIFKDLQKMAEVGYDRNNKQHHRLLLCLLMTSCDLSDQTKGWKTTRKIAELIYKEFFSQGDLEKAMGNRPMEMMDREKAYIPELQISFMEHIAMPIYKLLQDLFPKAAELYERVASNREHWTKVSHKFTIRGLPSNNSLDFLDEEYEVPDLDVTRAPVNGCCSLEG
Method: Frozen sagittal 12 µm brain sections obtained from female SPRD and male Wistar-Han rats (10–12 weeks old) were thawed, dried in a stream of cold air, and pre-incubated for 15 min with incubation buffer (50 mM TRIS-HCl, pH 7.4; supplemented with 1 mM MgCl2, 1 mM CaCl2, 2 mM KCl, and 2 U/mL Adenosine deaminase) at ambient temperature. Afterwards, the buffer was decanted and the cryosections dried again in a stream of cold air before covering with the radioligand in incubation buffer (~0.1 MBq [^18F]11/mL; Am at the time of the incubation ~10 GBq/µmol) for incubation at ambient temperature for 90 min.
The incubation was terminated by pouring off the incubation solution and washing the slides twice with ice-cold buffer (50 mM TRIS-HCl, pH 7.4/4 °C) for 2 min and rinsing by dipping in ice-cold demineralised water. Immediately afterwards, the sections were dried in a stream of cold air and exposed along with appropriate radioactive standards (1 µL of serial dilutions of the radioligand in incubation buffer, pipetted on a microscopic glass slide and air dried) to an ^18F-sensitive image plate for 120 min. Finally, the imaging plate was scanned at the highest possible resolution (pixel size 12.6 µm × 12.6 µm) in a phosphor imager (HD-CR 35; Duerr NDT GmbH, Bietigheim Bissingen, Germany) and the digital image analysed with an image analysis program (Aida Image Analyzer v. 4.26; Elysia-raytest GmbH, Straubenhardt, Germany).
For the determination of the protein concentration, four dried 12 µm cryosections were scraped from the microscopic glass slides, transferred in an Eppendorf tube and solubilised with 200 µL of demineralised water. The protein concentration of this solution was determined by a commercial assay (Pierce™ BCA Protein Assay Kit, Thermo Fisher Scientific, Schwerte, Germany). The area of the cryosections was determined during the analysis of the digitized autoradiographic images, and the volume was calculated by multiplying the area with the thickness of the slices. Finally, the protein concentration of the tissue was calculated (37 mg protein/g wet weight).

[3] = 30 min p.i., i.v., n = 2 (individual values)
[4] = caudate putamen, female SPRD rat
[5] = caudate putamen, male Wistar-Han rat

CCCC(O)c1ccc([18F])c(-c2nnc3c(C)nc4ccc(C5CC5)nc4n23)c1 (stereo not drawn) [[^18F]11]
fraction of non-metabolized radiotracer in brain [1, 3]: 42/50
fraction of non-metabolized radiotracer in plasma [1, 3]: about 7/11
radiometabolites in the brain (% of the activity) ([1]; 30 min post injection): ~ 50%
fraction of non-metabolized radiotracer in brain [2]: 66%
fraction of non-metabolized radiotracer in plasma [2]: about 50%
Kd (rat PDE2A; caudate nucleus and putamen, homologous competition, overall value (SPRD and Wistar)): ~0.2 nM and 0.24 nM
apparent Bmax (rat PDE2A; caudate nucleus and putamen, overall value (SPRD and Wistar)): ~20 pmol/mg protein and 16 pmol/mg protein
apparent Bmax (rat PDE2A; [4]): 14 pmol/mg protein
Kd (rat PDE2A; [4]): 0.38 nM
apparent Bmax (rat PDE2A; [5]): 18 pmol/mg protein
Kd (rat PDE2A; [5]): 0.1 nM
caudate putamen-to-cerebellum ratio (rat PDE2A; in vitro autoradiography, equilibrium conditions): about 2
